The values below come from paper PMC6930524, “A Prospective Repurposing of Dantrolene as a Multitarget Agent for Alzheimer’s Disease” (Molecules, 2019).

Usually IC50 stands for the concentration that inhibits the measured activity by half.

The target of assay [1] is T1, carnitine/acylcarnitine carrier (CAC) in intact rat liver mitochondria (Rattus norvegicus, UniProt P97521).
T1 construct: The measurement of CAC activity in isolated entire mitochondria has been performed as previously described; from tissue; host or cells: rat liver mitochondria (intact organelles)
T1 sequence (P97521 1-301): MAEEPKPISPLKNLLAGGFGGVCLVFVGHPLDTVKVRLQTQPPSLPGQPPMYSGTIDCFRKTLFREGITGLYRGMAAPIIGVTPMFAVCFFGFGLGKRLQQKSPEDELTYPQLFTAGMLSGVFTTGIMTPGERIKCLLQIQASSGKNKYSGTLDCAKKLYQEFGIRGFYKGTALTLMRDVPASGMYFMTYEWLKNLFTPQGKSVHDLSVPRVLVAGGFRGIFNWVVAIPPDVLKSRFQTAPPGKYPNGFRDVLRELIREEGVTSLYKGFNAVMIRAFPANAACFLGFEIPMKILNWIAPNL
Nature of the assay: [3H]-carnitine uptake (CAC transport) in intact mitochondria. Type of assay: biochemical. The conditions noted are these: 50 μM, after 120 min, 0.05 mM [3H]-carnitine. On the procedure:
The purification of crude rat mitochondria and the measurement of CAC transport activity are described in Materials and Methods. The uptake of carnitine was started by adding 0.05 mM [^3H]-carnitine in the presence or absence of 50 μM DAN (dissolved in 1:1 DMSO/H2O). The transport activity was inhibited at various times by adding cold 1 mM N-ethylmaleimide (NEM) in a buffer containing 150 mM sucrose, 50 mM TRIS-HCl, 50 mM KCl. […] Addition of DAN to intact mitochondria induced an increase of transport function up to 41% after 120 min.
In order to isolate crude mitochondria from rat liver, a standard protocol was performed, involving cell destruction by mechanical stress, isolation by differential centrifugation in order to eliminate various subcellular contaminations, and purification by centrifugation on colloidal silica Percoll 30% gradient. The average purity of the mitochondrial preparation was monitored by measuring the specific activity of alkaline phosphatase (EC 3.1.3.1). The specific activity of alkaline phosphatase, in the mitochondria preparations was measured at 37 °C as substrate consumed per min per mg protein [55]. […] The purified mitochondria (5 mg/100 μL) were incubated for 2 h with 20 mM carnitine, washed three times with a buffer containing 150 mM sucrose, 50 mM TRIS-HCl, 50 mM KCl, and the transport activity was measured. […]

Details of assay [2]: method as in PMID 11735355. The settings on record: cited from earlier work.
Assay [3] is described as follows: ABTS radical scavenging assay. The assay is classed as physicochemical. The conditions noted are these: compound at 0.2·[ABTS+]. From the text: Starting from these evidences, we tested DAN in two in vitro models of radical scavenging activity, i.e., the 1,1-diphenyl-2-picryl-hydrazyl (DPPH) and 2,2′-azinobis-(3-ethylbenzothiazoline-6-sulfonic acid) (ABTS) free radical production. Both generate stable nitrogen radicals showing high absorption in visible spectrum, thus allowing easy and straightforward spectrophotometric measures. […] It can be assumed that the antioxidant activity of DAN is independent from its radical scavenging properties.
Already published protocols for DPPH and […] radical scavenging were used. The scavenging of the radical DPPH^·, or the monocation radical ABTS^·+, were determined by measuring the loss of absorbance at 515 or 755 nm, respectively. Samples were prepared in clear polystyrene flat-bottomed 96-well microplates. […] A preliminary absorbance reading at 755 nm allowed to determine the actual ABTS^·+ concentration (normally 60–70 μM; extinction coefficient ε = 12,000) and set the final concentration of inhibitors to 0.2[ABTS^·+]. 215 μL of ABTS^·+ solution were mixed with 35 μL of stock solution of inhibitors and the decrease in absorbance was monitored. Antioxidant activity was determined from Equation (2) as the percentage of radical production of inhibitor containing samples, compared with control: % radical production = 100 × ABSsample/ABScontrol(2)

The next assay deals with T2, hMAO A (Homo sapiens, UniProt P21397).
T2 sequence (P21397 1-527): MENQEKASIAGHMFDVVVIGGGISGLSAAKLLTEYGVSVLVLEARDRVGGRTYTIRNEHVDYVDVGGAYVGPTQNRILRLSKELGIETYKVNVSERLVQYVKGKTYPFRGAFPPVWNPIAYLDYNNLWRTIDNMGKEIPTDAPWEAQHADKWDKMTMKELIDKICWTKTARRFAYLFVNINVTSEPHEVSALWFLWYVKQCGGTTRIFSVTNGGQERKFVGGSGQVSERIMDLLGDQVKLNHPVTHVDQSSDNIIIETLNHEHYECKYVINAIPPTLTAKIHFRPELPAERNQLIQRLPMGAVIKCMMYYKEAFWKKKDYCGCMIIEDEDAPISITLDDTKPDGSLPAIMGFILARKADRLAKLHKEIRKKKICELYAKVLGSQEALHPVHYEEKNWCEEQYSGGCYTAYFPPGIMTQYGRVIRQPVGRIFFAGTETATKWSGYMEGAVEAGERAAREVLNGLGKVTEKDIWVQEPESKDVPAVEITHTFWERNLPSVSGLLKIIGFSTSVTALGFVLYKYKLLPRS
Nature of the assay: biochemical.

Method for hMAO A: Selectivity over the corresponding isoforms hMAO A and butyrylcholinesterase (hBChE) was also verified.
An already published protocol using human recombinant monoamine oxidases A (250 U/mg) and B (59 U/mg; microsomes from baculovirus infected insect cells) [29] was used by applying a 96-well plate technique (instrument Infinite M1000 Pro, Tecan, Cernusco s.N., Italy). Briefly, compounds at a concentration ranging from 30 to 0.01 μM were preincubated 20 min at 37 °C with substrate kynuramine, in phosphate buffer 8.0 made 0.39 osmolar with KCl. After addition of enzyme and further 30 min of incubation, NaOH was added and the fluorescence read at 310/400 excitation/emission wavelength. Experiments were performed in duplicates in black, flat-bottomed polystyrene 96-well microtiter plates (Greiner Bio-One GmbH, Frickenhausen, Germany). […] Inhibition values and kinetics were calculated by means of Prism (GraphPad Prism version 5.00 for Windows, GraphPad Software, San Diego, CA, USA).

For the compound `O=C1CN(/N=C/c2ccc(-c3ccc([N+](=O)[O-])cc3)o2)C(O)=N1` [Dantrolene], the “increase of CAC transport function in intact mitochondria” value in assay [1] is given as 41%. Further, in assay [2], the “antioxidant potency, Fe3+/Fe2+ reduction” value is given as “high antioxidant potency”. The “ABTS radical scavenging activity” value in assay [3] is recorded as “no activity”. On hMAO A, this compound yielded a 50% inhibitory concentration (IC50) of 14 ± 1 µM.
